For data set [1], the system named is TK6 cells. As to the kind of experiment: ROS analysis (DCFH2-DA fluorescence). Format: cell-based, human. To be noted: 1 h; 35 µM for 2C-H, 2C-I and MDMA, 12.5 µM for 2C-B and 25B-NBOMe; vs C (-) equal to 1. As to the method:
Lastly, in order to identify a possible mechanism of action at the basis of the genotoxic activity, TK6 cells were treated for 1 h with the highest concentration tested for each substance: 35 µM for 2C-H, 2C-I and MDMA, and 12.5 µM for 2C-B and 25B-NBOMe, and then the possible ROS induction was measured.
(§1) In all experiments, aliquots of 2 × 10^5 of TK6 cells were treated with increasing concentrations of phenethylamines from 0 to 75 µM and incubated for 26 h, corresponding to two replication cycles for the analysis of cytotoxicity, cytostasis, apoptosis, and genotoxicity, while for the analysis of ROS, 1 h of treatment was performed.
At the end of the phenethylamines treatment time, 2 × 10^5 cells were centrifuged, resuspended in PBS1X to measure intracellular ROS level and stained at 37 °C in the dark for 20 min with 2′,7′-dichlorodihydrofluorescin diacetate (DCFH2-DA). After, a total of 5000 events, derived from viable cells, were acquired and analyzed using Guava Incyte software.
The fluorescence intensity of 2′,7′-dichlorofluorescin (DCF) (which forms in cells in the presence of ROS) recorded in treated cultures was normalized on those recorded in the untreated control cultures, accounted equal to 1 and expressed as a ROS fold increase.

Data set [2] deals with TK6 cells. As to the kind of experiment: Cytostasis analysis (Relative Population Doubling, Guava ViaCount). Particulars: for Relative Population Doubling (RPD): 26 h treatment, vs untreated control C (-) = 100%, mean ± SEM. Format: cell-based, human.
Excerpt: In addition, to make the genotoxicity test reliable, it is necessary to check the cellular proliferation in order to verify that a sufficient number of cells has undergone mitosis and so transmitted the genetic damage suffered to the daughter cells. For this purpose, the OECD recommends the measurement of the Relative Population Doubling (RPD) to estimate the cytostasis and, analogously to the cytotoxicity, establishes a threshold at most equal to 55 ± 5% [45].
as §1
In parallel, always using the Guava ViaCount Reagent, the number of cells seeded at time 0 and that measured at the end of the phenethylamines treatment time was used to check the correct replication in the control cultures and to compare it to that measured in the treated cultures by the RPD, calculated as the following formula [46, 47]: RPD= (No. of Population doublings in treated cultures)/(No. of Population doublings in control cultures) × 100
Similarly to cytotoxicity, the cytostasis was checked in order to verify that cell proliferation respected the threshold established by the OECD guideline (55 ± 5%).

A further data set concerns C2C12 myoblast cells. On the set-up: method as in PMID 30925718. Particulars: concentrations 30 times higher than in this study, 24 h; cited from earlier work.
Data set [3] relates to undifferentiated and differentiated human SH-SY5Y cells. On the set-up: method as in PMID 28067045. Particulars: cited from earlier work.
Data set [4] deals with TK6 cells. The data set can be described thus: Genotoxicity analysis (micronucleus frequency, automated flow cytometric protocol). Format: cell-based, human. Particulars: 26 h. The method, then: as §1
The analysis of the MNi frequency was performed using a new automated flow cytometric protocol that we recently developed in our laboratory. The detailed protocol is described in the paper by Lenzi et al. and was used in our previous publication to analyze the genotoxicity of some synthetic cannabinoids.
Briefly, at the end of the phenethylamines treatment time, 7 × 10^5 cells were collected and incubated with 7-AAD at RT for 5 min, after which the cells were lysed and stained with SYTOX Green for 1 h. After, a total of 10,000 nuclei, derived from viable and proliferating cells (7-AAD negative), and the corresponding number of micronuclei were acquired. The discrimination between nuclei and MNi occurs on the basis of the different size analyzed by Forward Scatter (FSC), and the different intensity of green fluorescence (SYTOX Green).
The MNi frequencies (number of MNi/10,000 nuclei) recorded in treated cultures were normalized on those recorded in the untreated control cultures, accounted equal to 1 and expressed as MNi frequency fold increase.
As recommended by OECD guideline 487, we used MMC and VINB as positive controls, being known clastogen and aneuploidogen agents, respectively.
For orientation: A flow cytometer gives signals particle by particle.

Another data set has as its system primary rat hepatocytes. On the set-up: method as in PMID 27255387. To be noted: 24 h; cited from earlier work.
Data set [5] relates to TK6 cells. The data set can be described thus: Apoptosis analysis (Guava Nexin Assay). Format: cell-based, human. Particulars: 26 h, vs untreated control C (-) equal to 1, tested concentrations. As to the method: as §1
The percentage of apoptotic cells was evaluated by the Guava Nexin Assay according to the procedure by Lenzi et al..
Briefly, at the end of the phenethylamines treatment time, the percentage of apoptotic cells was assessed using the Guava Nexin Reagent. The reagent contains the 7-aminoactinomycin D (7-AAD), a cell non-permeant dye, that allows discrimination between live and dead cells and the Annexin-V-PE that allows the identification of apoptotic cells by binding the phosphatidylserine on the cell surface.
100 μL of reagent were added to 100 μL of cell suspension (~1 × 10^5 cells) and incubated for 20 min at RT. After, a total of 2000 events were acquired and analyzed by Guava Nexin software.
The apoptotic cell percentages recorded in the cultures treated with phenethylamines different concentrations were normalized on those recorded in the untreated control cultures, accounted equal to 1 and expressed as apoptotic fold increase.

The test system of data set [6] is TK6 cells. The data set can be described thus: Cytotoxicity analysis (Guava ViaCount, cell viability). Format: cell-based, human. To be noted: all concentrations tested (6.25-75 µM), 26 h. As to the method:
In the preliminary phase of the research, we determined the concentrations to be used in the subsequent experiments aimed at evaluating the potential genotoxicity of different molecules under study. First, we assessed the 2C-H, 2C-I, 2C-B, 25B-NBOMe, and MDMA-induced cytotoxicity after 26 h treatment (time required by TK6 cells to carry out two cell cycles) by measuring the percentage of live cells at the different concentrations tested (6.25, 12.5, 25, 35, 50, 75 µM). This value was normalized on the one obtained in the untreated control cultures C (-) equal to 100% in order to check whether the cellular viability complied with the OECD threshold (equal to 55 ± 5%).
as §1
Cytotoxicity assay was performed as previously described by Lenzi et al.. Briefly, at the end of the phenethylamines treatment time, 1.5 × 10^5 cells were stained with Guava ViaCount Reagent. The reagent contains the Propidium Iodide (PI) that allows us to discriminate viable from dead cells based on different permeability to DNA-binding dye.
180 μL of reagent were added to 20 μL of cell suspension and incubated for 5 min at room temperature (RT). After, a total of 1000 events were acquired and analyzed by Guava ViaCount software.
The results obtained from the samples treated with different concentrations of phenethylamines were normalized on those obtained from the untreated control cultures, accounted equal to 100%.

Another data set deals with primary rat hepatocyte. On the set-up: method as in PMID 31468101. Particulars: after 24 h; cited from earlier work.

Consider `CNC(C)Cc1ccc2c(c1)OCO2` (stereo not shown) [MDMA, 3,4-methylenedioxy-methamphetamine, reference compound], for which the “ROS fold increase (mean fluorescence intensity)” value in the data set on TK6 cells [1] is reported as “did not highlight any ROS level increase”. Further, the “Relative Population Doubling (RPD)” value in the data set on TK6 cells [2] (6.25 µM) is on record as 96.0% ± 1.0; with TK6 cells [2] (12.5 µM), 96.0% ± 0.8; in the data set on TK6 cells [2] (25 µM), 98.7% ± 0.9; with TK6 cells [2] (35 µM), 98.0% ± 1.5; with TK6 cells [2] (50 µM), 96.0% ± 1.2; in the data set with TK6 cells [2] (75 µM) it was 91.9% ± 1.3. The “concentrations that caused an RPD value well above 55 ± 5% (OECD threshold)” value with TK6 cells [2] (26 h, tested 6.25-75 µM) is listed as “all the concentrations tested”. The mitochondrial superoxide production result in the data set on C2C12 myoblast cells is recorded as “increase in the mitochondrial superoxide production”. Further, in data set [3], the “production of ROS” value was “unable to trigger the production of ROS”. Also, in the data set with TK6 cells [4] (25 and 35 µM, vs C (-)), the “MNi frequency fold increase” value is on record as “did not increase the MNi frequency in any case”. The “genotoxicity (MN test outcome)” value in the data set on TK6 cells [4] (without metabolic activation) is on record as “not genotoxic”. Moreover, the ROS levels result in the data set on primary rat hepatocytes was “increase of ROS levels”. For the same compound, the apoptosis fold increase result with TK6 cells [5] is on record as “never reached a doubling”. The “cytotoxic and cytostatic effect” value in the data set on TK6 cells [6] was “did not show a cytotoxic and cytostatic effect”.
Regarding `CNC(C)C(=O)c1cccc(C)c1` (stereo not shown) [Metaphedrone, 3-methylmethcathinone], the “concentration mediating oxidative stress” value in the data set on primary rat hepatocyte is 10 µM.

The record behind these values is publication PMC7766159, “Novel Psychoactive Phenethylamines: Impact on Genetic Material” (International Journal of Molecular Sciences, 2020).
